Test results: paper PMC7998669, “7-(2-Anilinopyrimidin-4-yl)-1-benzazepin-2-ones Designed by a “Cut and Glue” Strategy Are Dual Aurora A/VEGF-R Kinase Inhibitors” (Molecules, 2021)

System: COLO 205
Assay: NCI cancer cell line screen (sulforhodamin B)
Type: cell-based
Conditions: Homo sapiens; COLO 205, Colon; 48 h; read-out: log10 GI50 (converted)
Protocol: The new dual Aurora A/VEGF-R inhibitors 2e and 2n were selected by the National Cancer Institute for screening in its broad cancer cell line panel. The NCI in vitro assay is performed by incubation of cells with test compounds for 48 h and subsequent cell fixation with trichloroacetic acid. The pink dye sulforhodamin B is added, which binds to the proteins of the fixed cells. After washing and solubilizing the bound stain, the optical density is measured spectrophotometrically to determine the relative proliferation of treated and untreated cells.
Simultaneous inhibition of the Aurora A kinase and the VEGF-R2/3 receptor kinases may represent an interesting dual activity for the treatment of cancer. The National Cancer Institute selected the compounds 2e and 2n as representatives with particularly high inhibitory activity on the above kinases for testing in the IVCLS (in vitro cell line screening). In this screening, compounds are tested for antiproliferative activity on about 60 in vitro cultivated tumor cell lines. Based on this very broad screening on cell lines from nine tumor entities the general antiproliferative potency of compounds is determined. In addition, the bioinformatic tool COMPARE allowed one to draw conclusions on the molecular target of the compounds from the activity patterns on the different cell lines. Similar molecular mechanisms of action of two compounds are assumed if a Pearson correlation coefficient (PCC) of > 0.6 is calculated by COMPARE [52, 53]. […] The selectivity profile of the two compounds is not very pronounced given the overall very similar proliferation inhibition values across all cell lines. A COMPARE analysis determined a PCC = 0.61 for the patterns of test compounds 2e and 2n, which is consistent with an analogous mechanism of action. However, whether this mechanism is actually based on the inhibition of the inhibited Aurora kinases and VEGF receptor kinases cannot be deduced from these profiles.

Q: With `COc1ccc(Nc2nccc(-c3ccc4c(c3)CCCC(=O)N4)n2)cc1O` [Compound 2n, 7-[2-(3-Hydroxy-4-methoxyanilino)pyrimidin-4-yl]-1,3,4,5-tetrahydro-2H-1-benzazepin-2-one] as the molecule, how does the GI50 read?
A: 26.3 µM
